Measured values reported in patent US8039668B2, “Naphthalene-based inhibitors of anti-apoptotic proteins” (Burnham Institute for Medical Research, priority 2008, dated 2011).
Read-outs that look alike come from different tables or passages of the source.

Columns and labels:
[1] = target: T1, BCL-XL (Homo sapiens, UniProt Q07817); test: 1D 1H-NMR binding assay; parameters: key to 1D-^1H NMR: +++, Very Active; ++, Active; +, Mild; −, Weak; conditions: for 1D-^1H NMR: Table 3, BCL-XL 25 μM, compound 200 μM
Method: By observing the aliphatic region of the spectra, binding could be readily detected due to chemical shift changes in active site methyl groups of Ile, Leu, Thr, Val or Ala (region between −0.8 and 0.3 ppm). All experiments were performed with a 600 MHz spectrometer Bruker Avance 600 equipped with four rf channels and z-axis pulse-field gradients.
Target sequence in this assay (Q07817 whole entry): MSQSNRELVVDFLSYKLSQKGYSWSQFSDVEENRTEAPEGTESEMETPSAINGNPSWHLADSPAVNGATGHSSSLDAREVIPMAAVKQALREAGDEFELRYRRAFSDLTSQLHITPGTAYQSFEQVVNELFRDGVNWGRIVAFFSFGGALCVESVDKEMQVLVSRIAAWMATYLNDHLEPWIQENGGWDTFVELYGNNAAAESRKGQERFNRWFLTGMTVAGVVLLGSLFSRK

[2] = target: Bcl-2 (Homo sapiens, UniProt P10415); test: Competitive fluorescence polarization assay (FPA), Bim BH3 peptide; format: binding
Sequence of Bcl-2 (P10415 whole entry): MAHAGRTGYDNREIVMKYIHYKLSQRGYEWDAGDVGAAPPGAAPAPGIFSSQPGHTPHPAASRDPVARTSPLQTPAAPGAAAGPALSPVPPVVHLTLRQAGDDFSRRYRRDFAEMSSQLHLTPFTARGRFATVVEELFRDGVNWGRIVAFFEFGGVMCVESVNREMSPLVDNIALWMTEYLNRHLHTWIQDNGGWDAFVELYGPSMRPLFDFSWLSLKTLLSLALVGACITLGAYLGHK

[3] = target: Mcl-1 (Homo sapiens, UniProt Q07820); test: as above; format: binding
Sequence of Mcl-1 (Q07820 whole entry): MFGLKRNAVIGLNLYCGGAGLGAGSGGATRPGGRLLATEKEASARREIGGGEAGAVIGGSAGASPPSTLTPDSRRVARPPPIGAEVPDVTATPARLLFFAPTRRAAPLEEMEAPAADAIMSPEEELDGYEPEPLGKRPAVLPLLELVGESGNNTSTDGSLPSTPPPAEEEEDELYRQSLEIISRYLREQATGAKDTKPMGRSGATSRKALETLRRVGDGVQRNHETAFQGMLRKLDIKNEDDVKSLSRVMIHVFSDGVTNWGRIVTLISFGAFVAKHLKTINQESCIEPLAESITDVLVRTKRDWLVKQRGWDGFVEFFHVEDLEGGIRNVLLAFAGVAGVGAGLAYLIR

[4] = target: T2, Bfl-1 (Homo sapiens, UniProt Q16548); test: Competitive fluorescence polarization assay (FPA); format: binding
T2 sequence (Q16548 1-175): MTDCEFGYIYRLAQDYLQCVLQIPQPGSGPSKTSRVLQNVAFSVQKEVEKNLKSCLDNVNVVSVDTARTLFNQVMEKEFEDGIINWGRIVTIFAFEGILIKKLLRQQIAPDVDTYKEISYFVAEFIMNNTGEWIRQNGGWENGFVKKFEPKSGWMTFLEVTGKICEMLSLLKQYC

[5] = target: T1, BCL-XL; test: Isothermal titration calorimetry (ITC); format: binding
Method: Titrations were performed using a VP-ITC or ITC200 calorimeter from Microcal (Northampton, Mass.). BCL-XL was used at concentrations between 25 and 100 μM in 20 mM sodium phosphate buffer (pH 7.4) and 5-10% DMSO. Titrants were used at concentrations 10-15 fold of that of the protein in the same buffer. Titrations were carried out at 25° C. Data were analyzed using Microcal Origin software provided by the ITC manufacturer (Microcal, Northampton, Mass.).
Target sequence in this assay (Q07817 whole entry): as the sequence (Q07817 whole entry) above

[6] = system: H1299 cell line; test: Cell viability, ATP-LITE assay; format: cell-based, human; conditions: for EC50: Table 3, ATP-LITE assay, read-out: EC50 H1299
Summary of the method: (§1)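 Human cancer lines were seeded at 2000 (H460, H1299), 3000 (PC3) or 10,000 (RS11846) cells/well in F12 or RPMI1640 with 5% FBS. Compounds were added in 0.1% DMSO 24 h after seeding. Viability was read by ATP-LITE luminescence after 72 h and normalized to DMSO controls.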

[7] = system: PC3ML cells; test: Cell viability, ATP-LITE assay; format: cell-based, human; conditions: Table 3, ATP-LITE assay, heading: EC50 PC3ML, read-out: EC50 PC3ML
Summary of the method: as §1

[8] = system: H460 human lung cell line; test: Cell viability, ATP-LITE assay; format: cell-based; conditions: for EC50: ATP-LITE assay, read-out: EC50 H460; for IC50: read-out: IC50 inhibiting cell growth, H460
Summary of the method: as §1

[9] = system: human lymphoma RS11846 cell line; test: Apoptosis, Annexin V-FITC and propidium iodide assay; format: cell-based; conditions: Annexin V-FITC and propidium iodide assay, read-out: EC50 RS11846
Method: The apoptotic activity of the compounds against RS11846 cells was assessed by staining with Annexin V- and propidium iodide (PI). Lymphoma cell line, RS11846, was cultured in RPMI 1640 medium (Mediatech Inc., Herndon, Va. 20171) containing 10% fetal bovine serum (Mediatech Inc., Herndon, Va. 20171) and Penicillin/Streptomycin (Mediatech Inc., Herndon, Va. 20171). […] The percentage of viable cells was determined by FITC-Annexin V- and propidium iodide (PI)-labeling, using an Apoptosis Detection kit (BioVision Inc.), and analyzing stained cells by flow cytometry (FACSort; Bectin-Dickinson, Inc.; Mountain View, Calif.). Cells that were annexin-V-negative and PI-negative were considered viable.

[10] = system: BP3 human B-cell lymphoma cell line; test: Annexin V-FITC and propidium iodide assay; format: cell-based; conditions: for EC50: Annexin V-FITC and propidium iodide assay, read-out: EC50 BP3
[11] = system: Bax/Bak double knockout mouse embryonic fibroblast cells (MEF/DKO); test: FITC-Annexin V/PI cytotoxicity in Bax/Bak double knockout cells; format: cell-based; conditions: 10 μM
Method: MEF/WT and MEF/DKO cells were seeded in 24-well plate at a seeding density of half a million per well (in 1 ml of DMEM medium supplemented by 10% FCS). […] On the following day, floating cells were pooled with adherent cells harvested after brief incubation with 0.25% Trypsin/EDTA solution (Gibco/In-Vitrogen Inc.). Cells were centrifuged and supernatant was discarded, and cell pellet was re-suspended with 0.2 ml of Annexin-V binding buffer, followed by addition of 1 μl Annexin-FITC and 1 μl PI (propidium iodide). The percentage of viable cells was determined by a 3-color FACSort instrument and data analyzed by Flow-Jo program, scoring Annexin V-negative, PI-negative as viable cells.

[12] = Chemical stability of solid compounds at room temperature (HPLC, LCMS); conditions: in air, Apogossypol in the absence of ascorbic acid
Text: The stability of compound was monitored using a combination of HPLC and LCMS.

[13] = Plasma stability; format: in vitro ADME, rat; conditions: for Plasma stability (T = 1 h): Table 6, rat plasma
Method: Plasma Stability. A 20 μL aliquot of a 10 mM solution in DMSO of the test compound was added to 2.0 mL of heparinized rat plasma (Lampire, P1-150N) to obtain a 100 μM final solution. The mixture was incubated for 1 h at 37.5° C. Aliquots of 100 μL were taken (0, 30 min, 1 h) and diluted with 200 μL of MeOH containing internal standard.

[14] = Liver microsomal stability; format: in vitro ADME, rat; conditions: Table 6; rat liver microsomes, 1 h
Text: Liver Microsomal Stability.

[15] = system: B6Bcl-2 transgenic mice; conditions: for Tox: Bcl-2 transgenic mouse, single ip injection 72 μmol/kg; for percentage of maximum reduction in spleen weight (maximal biological activity): maximum shrinkage no more than 50%
Summary of the method: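 B6 line BCL-2 transgenic mice (human BCL-2 fused to IgH locus/enhancer, Balb/c background) sacrificed 24 h post-treatment by lethal i.p. Avertin. Spleen removed and weighed, fixed 3 days in z-FIX for H&E and TUNEL histology.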

[16] = target: T1, BCL-XL; test: Competitive fluorescence polarization assay (FPA), Bak BH3 peptide; format: binding; parameters: 100 nM GST-BCL-XL ΔTM protein
Summary of the method: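 100 nM GST-BCL-XL ΔTM preincubated with compound in PBS pH 7.4 for 10 min at room temperature, then FITC-Bak BH3 peptide added. Polarization read after 10 min. IC50 from sigmoidal dose-response fit; mean ± SE of three independent experiments.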
Target sequence in this assay (Q07817 1-209 limits assumed): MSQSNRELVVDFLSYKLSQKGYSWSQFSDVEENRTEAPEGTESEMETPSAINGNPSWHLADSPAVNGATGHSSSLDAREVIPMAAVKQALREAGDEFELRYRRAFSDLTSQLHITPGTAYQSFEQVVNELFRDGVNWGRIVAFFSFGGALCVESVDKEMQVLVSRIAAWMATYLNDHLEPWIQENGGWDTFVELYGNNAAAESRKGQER

[17] = system: Balb/c mice
Text: Upon conclusion of the study, mice were euthanized by CO2, and vital organs were harvested and fixed with z-FIX solution for 3 days at room temperature, rinsed in PBS three times, for further histological evaluation.

[18] = system: BCL-2 transgenic mice; test: Oral efficacy study in BCL-2 transgenic mice, QDx5 for 3 weeks; conditions: low dose 0.06 mmol/kg oral
Method: The volume of administration was 10 ml/kg, i.e., typically 0.2 mL per 20 gm mouse. […] Age-matched, sex-matched mice were typically dosed 5 times weekly, using a regiment of daily dosing 5 consecutive days (Monday through Friday), followed by resting for 2 days, before resuming dosing. […] At conclusion of treatments, mice were sacrificed via intra-peritoneal (i.p.) injection of 0.7 ml of Avertin and whole blood was collected into Yellow-Top Serum Separator tubes (Becton Dickinson Vacutainer Systems Becton Dickinson and Company, Franklin Lakes, N.J. 07417-1885). Spleens were removed and weighed.
Age-matched and sex-matched BCL-2 transgenic mice were used for efficacy studies. BCL-2 transgenic mice spontaneously developed low grade B-cell lymphoma as characterized by splenomegaly, as a function of time. In BCL-2 transgenic mice, the disease progression can be divided into two stages; at the first stage, the disease is characterized by splenomegaly as a result of expansion of B-cells in spleen due to over-expressed BCL-2 in B6 mice, and at the second stage, another genetic hit(s) may strike, resulting in disseminated lymphoma as characterized by bulky lymphadenopathy as well as splenomegaly.
In this study, BCL-2 transgenic mice at the first stage were used for this efficacy study. […] At conclusion of treatment, BCL-2 transgenic mice were sacrificed via intraperitoneal injection of 0.7 ml of avertin (anesthetic solution) and spleen was removed and weighed. Splenocytes were isolated by the use of mouse erythrocyte lysing kit (RD Systems). Total splenocyte count was determined by trypane blue exclusion assays. % B-cell count was determined by FACS analysis after staining cells with CD-5, a B-cell marker.

[19] = PAMPA cell membrane permeability; format: in vitro ADME; conditions: Table 11; Low/Medium, not defined
Text: PAMPA is parallel artificial membrane permeation assay.

[20] = system: Balb/c mice; test: Oral toxicity of gossypol vs apogossypol in normal mice; format: in vivo, mouse; conditions: daily dosing studies in mice
Method: Compounds or vehicle control were dosed 15 times over 3 weeks, giving compounds daily for 5 consecutive days (Monday-Friday), resting on weekends.
Spleens were removed and weighed.
Whole blood (250 μl) was collected in EDTA-coated glass tubes (purple top; MICROTAINER Brand Tube with EDTA, Catalogue #365973, Becton, Dickinson and Company, New Jersey 07417-1885) via either cardiac puncture or severing the brachial artery of anesthetized mice. After thorough mixing, specimens were analyzed using a VetScan HM2 (Abaxis Inc., Union City, Calif. 94587) hematology analyzer, measuring white blood cell count (WBC), red blood cell count (RBC), platelet (PLT) count, leukocyte differential (including % lymphocyte, % monocyte and % granulocyte), hematocrit (Ht), and hemoglobin (Hb).
(Eppendorf Centrifuge 5415C) for 2 minutes to separate serum from cells and fibrin clot. The resulting serum specimens were analyzed using an automated blood chemistry analyzer (“COBAS MIRA Classic”; Roche, Indianapolis, Ind. 46250-0414) to measure alanine aminotransferase (ALT) and aspartate aminotransferase AST), blood urea nitrogen (BUN), and […].

CCc1ccc(CCNC(=O)c2c(O)c(O)cc3c(O)c(-c4c(C)cc5c(C(=O)NCCc6ccc(CC)cc6)c(O)c(O)cc5c4O)c(C)cc23)cc1 [Compound 8q, N^5,N^5′-bis(4-ethylphenethyl)-1,1′,6,6′,7,7′-hexahydroxy-3,3′-dimethyl-2,2′-binaphthyl-5,5′-dicarboxamide]
1D-^1H NMR [1]: +++ | IC50 [2]: 0.67 µM | IC50 [3]: 0.59 µM | IC50 [4]: 1.3 µM | Kd [5]: 0.12 µM | EC50 ([6]; Homo sapiens, NCI-H1299): 0.36 µM | IC50 ([6]; Homo sapiens, NCI-H1299, read-out: IC50 cell inhibition, H1299): 0.36 µM | EC50 ([7]; Homo sapiens, PC3-ML): 1.7 µM | EC50 ([8]; Homo sapiens, NCI-H460, Table 3): 0.4 µM | IC50 ([8]; Homo sapiens, NCI-H460): 0.4 µM | EC50 ([9]; Homo sapiens): 3 to 5.8 µM | EC50 ([9]; Homo sapiens, Table 3, heading: EC50 RS11846): 3 µM | EC50 ([10]; Homo sapiens, B-cell, Table 3): 0.2 µM | IC50 ([10]; Homo sapiens, B-cell, read-out: IC50 inhibiting cell growth, BP3): 0.2 µM | MEF/DKO cells killed [11]: 20-35% | degraded after 60 days at room temperature [12]: 10% | Plasma stability (T = 1 h) [13]: 94% | Microsomal Stability (T = 1 h) [14]: 87% | Tox [15]: 4+ | IC50 ([16]; read-out: IC50 FPA Bcl-XL): 0.93 µM

Cc1cc2c(C(=O)NCC(C)c3ccccc3)c(O)c(O)cc2c(O)c1-c1c(C)cc2c(C(=O)NCC(C)c3ccccc3)c(O)c(O)cc2c1O (centres unmarked) [Compound 8r, 1,1′,6,6′,7,7′-hexahydroxy-3,3′-dimethyl-N^5,N^5′-bis(2-phenylpropyl)-2,2′-binaphthyl-5,5′-dicarboxamide]
1D-^1H NMR [1]: ++ | times more potent than Apogossypol, FP Bfl-1 ([4]; vs Apogossypol): approximately 10 | times more potent than Apogossypol, ITC Bcl-XL ([5]; vs Apogossypol): 15 | IC50 ([8]; Homo sapiens, NCI-H460): 0.33 µM | times more potent than Apogossypol, H460 ([8]; vs Apogossypol): 7-10 | EC50 ([10]; Homo sapiens, B-cell): 0.66 µM | times more potent than Apogossypol, BP3 ([10]; vs Apogossypol): 7-10 | MEF/DKO cells killed [11]: 20-35% | degraded after 60 days at room temperature [12]: 10% | degraded after 1 hour incubation in rat plasma [13]: 4% | Plasma stability (T = 1 h) [13]: 96% | Microsomal Stability (T = 1 h) [14]: 76% | GI toxicity ([15]; B6Bcl-2 transgenic (Balb/c background), mouse, in vivo, 42 mg/kg, 24 h): mild signs of GI toxicity | average weight loss of mice ([15]; mouse, in vivo, 42 mg/kg): 7.8% | percentage of maximum reduction in spleen weight (maximal biological activity) ([15]; single ip 72 μmol/kg): 85-95% | spleen weight reduction ([15]; single mouse, single ip 72 μmol/kg): more than 40% | weight loss ([17]; mouse, in vivo, ip, 50 mg/kg): around 13% | mortality ([17]; single ip 100, 75, 50, 25 and 12.5 mg/kg, 14 days): All mice were alive after 14 days | times more effective than Apogossypol, FP Bcl-XL ([16]; vs Apogossypol): 5

CC(=O)O.Cc1cc2c(C(C)C)c(O)c(O)c(C=O)c2c(O)c1-c1c(C)cc2c(C(C)C)c(O)c(O)c(C=O)c2c1O [Gossypol, reference compound]
1D-^1H NMR [1]: +++ | 1D ^1H-NMR Binding Assay (BCL-XL) ([1]; Table 9): ++ | EC50 ([6]; heading: EC50 H1299): 6 µM | EC50 [7]: 3.1 µM | EC50 ([8]; Table 3, heading: EC50 H460): 3 µM | EC50 ([9]; Table 3, heading: EC50 RS11846): 4.2 µM | EC50 ([10]; Table 3, heading: EC50 BP3): 1.42 µM | Tox [15]: 2+ | percentage of maximum reduction in spleen weight (maximal biological activity) ([15]; single ip 72 μmol/kg): 40% | shrinkage of spleen [18]: induced shrinkage of spleen to a considerable extent but not significantly | tolerability [18]: well tolerated

Cc1cc2c(C(C)C)c(O)c(O)cc2c(O)c1-c1c(C)cc2c(C(C)C)c(O)c(O)cc2c1O [Apogossypol, 5,5′-diisopropyl-3,3′-dimethyl-2,2′-binaphthyl-1,1′,6,6′,7,7′-hexanol, reference compound]
IC50 [2]: 4.3 µM | IC50 [4]: > 10 µM | EC50 [7]: 10.4 µM | EC50 [8]: 3.5 µM | EC50 ([8]; Table 3, heading: EC50 H460): 3.5 µM | EC50 ([9]; Table 3, heading: EC50 RS11846): 5 µM | EC50 [10]: 4.7 µM | EC50 ([10]; Table 3, heading: EC50 BP3): 4.7 µM | degraded after 60 days at room temperature [12]: ~80% | degraded after 1 hour incubation in rat plasma [13]: 47% | Plasma stability (T = 1 h) [13]: 53% | Microsomal Stability (T = 1 h) [14]: 64% | Cell Permeability [19]: Low | Tox [15]: 0 | percentage of maximum reduction in spleen weight (maximal biological activity) ([15]; single ip 72 μmol/kg): 40% | tolerated doses, times higher than gossypol [20]: 2-4 | shrinkage of spleen [18]: induced shrinkage of spleen to a significant extent | tolerability [18]: well tolerated
